Experimental findings from patent publication US9441012B2, “Fluorinated epoxyketone-based compounds and uses thereof as proteasome inhibitors” (FLUORINOV PHARMA INC., priority 2012, dated 2016) are described below.

Common to all, as to type: cell-based
In test [1] the test system is CAKI-1. Nature of the test: NCI 60 human tumor cell line screen (SRB). As to conditions: CAKI-1 (Renal Cancer); 48 h.
Test [2] deals with T-47D. Nature of the test: NCI 60 human tumor cell line screen (SRB). As to conditions: T-47D (Breast Cancer); 48 h.
Test [3] has as its system KMS-11. Nature of the test: Cell viability assay (MTS). To be noted: Homo sapiens, 72 hours, mean ± standard deviation. The protocol: (§1) Human multiple myeloma cell lines 8226, H929, JJN3, KMH11, KMS11, KMS18, LP1, MM1S, OPM2 and U266 were grown in Iscove modified Dulbecco's medium (IMDM). Human leukemia cell lines K562, OCI-AML2 and U937 were cultured in RPMI-1640 medium. Primary peripheral blood mononuclear cells were isolated from multiple myeloma patients by Ficoll density gradient centrifugation and bone marrow aspirates were obtained from multiple myeloma patients at the Princess Margaret Cancer Centre of the University Health Network (UHN; Toronto, ON, Canada). Primary cells were cultured in IMDM. The collection and use of human tissue for this study were approved by the UHN institutional ethics review board. All cell culture media were obtained from the Ontario Cancer Institute Tissue Culture Media Facility (Toronto, ON, Canada) and were supplemented with 10% fetal calf serum, […] (Hyclone, Logan, Utah). All cells were grown in a humidified incubator at 37° C. with 5% CO2.
(§2) Cellular viability was primarily assessed by 3-(4,5-dimethylthiazol-2-yl)-5-(3-carboxymethoxyphenyl)-2-(4-sulfophenyl)-2H-tetrazolium (MTS) assay according to the manufacturer's instructions (Promega; Madison, Wis.). Cells were first seeded at a density of 10,000 cells per well in tissue culture-treated 96-well plates. Two hours after seeding, cells were treated with compounds for 72 hours at concentrations as indicated. As a control, cells were treated with DMSO alone in every assay plate. Following treatment and the MTS assay, cell viability was independently confirmed by reading the optical density (O.D.) at 490 nm and by exclusion of trypan blue stain (Invitrogen; Burlington, ON, Canada). The viability of primary mononuclear cells was determined by staining with Annexin V.
(§3) Table 9 summarizes data obtained for representative compounds of Formula I for cell viability and CT-L proteasome activity using OCI-AML-2 and KMS-11 cell lines.

The test system of test [4] is OCI-AML-2. Nature of the test: Cell viability assay (MTS). To be noted: Homo sapiens, OCI-AML2, 72 hours, mean ± standard deviation. The protocol: as §1, §2, §3
In test [5] the test system is high molecular weight ubiquitylated proteins in LP1 cells. In words: Immunoblotting assay of ubiquitylated proteins. As to conditions: Homo sapiens, LP-1, read-out: IC50 (increase of ubiquitylated proteins, immunoblot). The protocol:
Whole cell lysates were prepared from LP1 cells in RIPA lysis buffer. Anti-ubiquitin antibody was purchased from Cell Signaling Technology Inc, (Danvers, Mass.) and anti-tubulin antibody was purchased from Sigma-Aldrich (St. Louis, Mo.). Secondary horseradish peroxidase-conjugated goat anti-mouse or anti-rabbit IgG was purchased from Amersham Bioscience (Piscataway, N.J.). Detection was performed using an enhanced chemiluminescence kit from Pierce, (Rockford, Ill.).

`Cc1ncc(C(=O)N[C@@H](COC(F)F)C(=O)N[C@@H](COC(F)F)C(=O)N[C@@H](Cc2ccccc2)C(=O)[C@@]2(C)CO2)s1` [Example 1, 2-methyl-thiazole-5-carboxylic acid ((S)-1-{(S)-1-[(S)-1-benzyl-2-((R)-2-methyloxiranyl)-2-oxo-ethylcarbamoyl]-2-difluoromethoxyethylcarbamoyl}-2-difluoromethoxyethyl)-amide]: the Log10GI50 in test [1] is −6.40; in test [2], −6.59. This compound registered a Log10LC50 in test [1] above −4.00. Also, the Log10TGI50 in test [1] is −5.28; in test [2], above −4.00. Moreover, the IC50 in test [3] was 30.9 ± 10.7 nM; in test [4], 109 ± 25.3 nM; in test [5] it was below 50 nM.
In the case of `CC(C)C[C@H](NC(=O)[C@H](Cc1ccccc1)NC(=O)[C@H](COC(F)F)NC(=O)CN1CCOCC1)C(=O)[C@@]1(C)CO1` [Example 25, (2S)-2-[[(2S)-3-(difluoromethoxy)-2-[(2-morpholinoacetyl)amino]propanoyl]amino]-N-[(1S)-3-methyl-1-[(2R)-2-methyloxirane-2-carbonyl]butyl]-3-phenyl-propanamide], the Log10GI50 in test [1] is given as −6.72; in test [2], −7.78. Besides, the Log10LC50 in test [1] was above −4.00. Further, the Log10TGI50 is reported as −6.09 in test [1] and −7.46 in test [2]. Also, the IC50 is 39.5 ± 7.45 nM in test [3], 55.6 ± 19.2 nM in test [4] and below 50 nM in test [5].
For `C[C@]1(C(=O)[C@H](Cc2ccccc2)NC(=O)[C@H](COC(F)F)NC(=O)[C@H](COC(F)F)NC(=O)CN2CCOCC2)CO1` [Example 26, (S)-N-{(S)-1-[(S)-1-Benzyl-2-((R)-2-methyl-oxiranyl)-2-oxo-ethylcarbamoyl]-2-difluoromethoxyethyl}-3-difluoromethoxy-2-(2-morpholin-4-yl-acetylamino)-propio-namide], in test [1], the Log10GI50 was −6.72, the Log10LC50 is above −4.00 and the Log10TGI50 is listed as −6.09. Besides, in test [2], the Log10GI50 is given as −7.78 and the Log10TGI50 is −7.46. This compound also yielded an IC50 in test [3] of 99.7 ± 17.7 nM. This compound came in with an IC50 in test [4] of 223 ± 10.3 nM.
For the compound `C[C@]1(C(=O)[C@H](Cc2ccccc2)NC(=O)[C@H](Cc2ccccc2)NC(=O)[C@H](COC(F)F)NC(=O)CN2CCOCC2)CO1` [Example 29], the Log10GI50 in test [1] was −6.56; in test [2], −7.16. The compound also had a Log10LC50 in test [1] above −4.00. Besides, the Log10TGI50 in test [1] is reported as −5.94; in test [2], −6.62. Also, the IC50 in test [3] is 60.4 ± 11.2 nM; in test [4], 75.9 ± 15 nM.

What is called IC50 is the midpoint of a concentration-inhibition curve.
